Reference: PubChem BioAssay (NCI)
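Where inhibition never reached the appropriate level, the endpoint shown equals the highest concentration tested. Otherwise, values were interpolated linearly from a five-concentration, 48-hour dose response in 96-well plates. The concentration for 50% growth inhibition is given as GI50. Definition used: TGI = concentration required for complete inhibition of growth.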

Assays:
Assay in all cases: growth of human tumour cells (NCI), 48 h
U251 CNS = tested on: U251 CNS
SF-268 CNS = tested on: SF-268 CNS
NCI-H460 lung = tested on: NCI-H460 lung
CCRF-CEM leukemia = tested on: CCRF-CEM leukemia
HOP-62 NSCLC = tested on: HOP-62 NSCLC
K-562 leukemia = tested on: K-562 leukemia
SK-MEL-2 melanoma = tested on: SK-MEL-2 melanoma
OVCAR-4 ovarian = tested on: OVCAR-4 ovarian
NCI/ADR-RES ovarian = tested on: NCI/ADR-RES ovarian
A498 renal = tested on: A498 renal

Compound	TGI (U251 CNS) [µM]	TGI (SF-268 CNS) [µM]	TGI (NCI-H460 lung) [µM]	TGI (CCRF-CEM leukemia) [µM]	TGI (HOP-62 NSCLC) [µM]	TGI (K-562 leukemia) [µM]	TGI (SK-MEL-2 melanoma) [µM]	TGI (OVCAR-4 ovarian) [µM]	TGI (NCI/ADR-RES ovarian) [µM]	TGI (A498 renal) [µM]	GI50 (OVCAR-4 ovarian) [µM]	GI50 (U251 CNS) [µM]	GI50 (SF-268 CNS) [µM]	GI50 (NCI/ADR-RES ovarian) [µM]	GI50 (NCI-H460 lung) [µM]	GI50 (HOP-62 NSCLC) [µM]	GI50 (A498 renal) [µM]	GI50 (K-562 leukemia) [µM]	GI50 (SK-MEL-2 melanoma) [µM]	GI50 (CCRF-CEM leukemia) [µM]
CC(O)c1ccc[n+](Cc2ccccc2)c1 (stereo unspecified)	> 400	> 400	> 400	> 400	> 400	> 400	> 400													
O=C(O)C1C(C(=O)O)C23CC2(C(=O)O)C2(C(=O)O)CCC3=C3CCCC312 (stereo unspecified)	23.8	22.5	20		22.4	95.5	38.8	80.6	> 100	62.6										
COC(=O)NN=C1C(C)(C)C(=O)C1(C)C	> 100	> 100	> 100	> 100	> 100	> 100	> 100			> 100										
Oc1ccccc1CNCC12CC3CC(CC(C3)C1)C2	49.3	> 100	57.7		84	> 100	41.2	> 100	> 100	31.5	48.8	20.7	46.8	40.4	23.3	28.8	10.4	5.39	20.2	
Cc1[nH]c(=O)n2c(C)nnc2c1C(=O)Nc1cc(Cl)cc(Cl)c1	53.2	> 100	> 100	> 100	79.4	> 100		> 100												
S=c1ssc(Oc2ccccc2)c1Cl	26.4	26.1	33.1	5.84	> 100	> 100	83.3	> 100	35.4		34	7.06	13.3	16.4	16.9	37		2.68	33.9	1.02
CC1=NN(C(=O)CC(=O)NC(=O)CC(=O)Nc2ccccc2F)C(=O)C1N=Nc1ccc([N+](=O)[O-])cc1 (stereo unspecified)	50	> 100	> 100	63.6	> 100	65.4	> 100	> 100		94.8										
COc1ccc2c(c1)Oc1cc(O)ccc1[C@@H]2c1ccccc1C(=O)NC(C)c1ccccc1 (stereo partly specified)	28.8	52.8	27.4	98.7	35.8	> 100	46.6			32.1										
Cc1ccc(NC(=O)C(=O)CC(=O)c2c(C)n([O-])c3ccccc3[n+]2=O)cc1	92.3	96.2	77.4	49	> 100	56.4	53	96.3		> 100										
O=C(NCCCCCCNC(=O)OCCSCCn1cc(C(=O)NC(=O)OCc2ccccc2)c(=O)[nH]c1=O)OCCSCCn1cc(C(=O)NC(=O)OCc2ccccc2)c(=O)[nH]c1=O	> 100		> 100	> 100	> 100	> 100	> 100	> 100		> 100										
COc1ccc(C(=O)/C=C/c2ccc3c(c2)OCO3)c(OCc2ccccc2)c1	> 100	> 100	> 100	> 26.9	> 100	> 100	> 100	> 61		> 100										
O=C1CCCC(=O)N1CCc1c[nH]c2ccccc12	> 100	> 100	> 100	> 100	> 100	> 100	> 100	> 100		> 100										
COC(=O)C1=C(C(=O)OC)SC(=C(Cl)C(=S)Nc2ccccc2O)S1	30.5	23.6	> 50	> 50	11.2	> 50	22.2	> 50	35.1		35.5	12.2	10.2	14.1	11.5	0.354		22.6	10.3	> 50
CC(C)(CN1CCCCC1)C(=O)/C=C/c1ccc(Cl)cc1	11.7	12.1	8.21	7		12.3		16		10.8										
Cn1ccc2c(C(=O)c3ccccc3)cccc2c1=O		> 100	> 100	> 100	93.7		> 100	> 100												
Fc1ccccc1C1SCc2nc3ccccc3n21 (stereo unspecified)		> 100	> 100	> 100		> 100	> 100			> 100										
Nc1nc(N)c2c(n1)NC(c1ccc(F)cc1)C1CCc3ccccc3C1=N2 (stereo unspecified)	16.9	23.7	13.6		19.8		19.6	18.2	11.4	9.08	3.98	4.29	8.64	3.19	3.76	6	2.87		5.73	
O=C(c1ccccc1)C(Br)C(Br)c1cccc([N+](=O)[O-])c1 (stereo unspecified)	3.02	6.77	14.9	2.78	14.4		8.48	2.81	8.82		1.49	1.56	2.47	2.88	3.12	4.26			3.03	0.574
c1ccc2cc3[s+]snc3cc2c1	> 100	> 100	> 100	> 100	> 100	> 100	> 100	> 100		> 100										
COC(=O)[C@]12CC=C3O[C@@H]4OC5(CCCCC5)O[C@@H]4C3[C@@H]1C(=O)CCC2=O (stereo partly specified)	> 100	> 100	> 100	> 100	> 100	> 100	> 100	> 100		> 100										
